From patent US9695155B2, “Herbicidal substituted pyrimidinyloxy benzene compounds” (E. I. DU PONT DE NEMOURS AND COMPANY, priority 2013, dated 2017)

Assays:
bromegrass, downy [1] = assay: Test D preemergence; assay type: in vivo, Bromus tectorum
Description: (§1) Seeds of plant species selected from bluegrass (annual bluegrass, Poa annua), blackgrass (Alopecurus myosuroides), canarygrass (littleseed canarygrass, Phalaris minor), chickweed (common chickweed, Stellaria media), galium (catchweed bedstraw, Galium aparine), bromegrass, downy (downy bromegrass, Bromus tectorum), field poppy (Papaver rhoeas), field violet (Viola arvensis), green foxtail (Setaria viridis), deadnettle (henbit deadnettle, Lamium amplexicaule), Italian ryegrass (Lolium multiflorum), kochia (Kochia scoparia), lambsquarters (Chenopodium album), oilseed rape (Brassica napus), pigweed (Amaranthus retroflexus), chamomile (scentless chamomile, Matricaria inodora), Russian thistle (Salsola kali), speedwell (bird's-eye speedwell, Veronica persica), spring barley (Hordeum vulgare), spring wheat (Triticum aestivum), wild buckwheat (Polygonum convolvulus), wild mustard (Sinapis arvensis), wild oat (Avena fatua), wild radish (Raphanus raphanistrum), windgrass (Apera spica-venti), winter barley (Hordeum vulgare), and winter wheat (Triticum aestivum) were planted into a silt loam soil and treated preemergence with test chemicals formulated in a non-phytotoxic solvent mixture which included a surfactant.
(§2) At the same time, these species were planted in pots containing Redi-Earth® planting medium (Scotts Company, 14111 Scottslawn Road, Marysville, Ohio 43041) comprising spaghnum peat moss, vermiculite, wetting agent and starter nutrients and treated with postemergence applications of the test chemicals formulated in the same manner. Plants ranged in height from 2 to 18 cm (1- to 4-leaf stage). Treated plants and controls were maintained in a controlled growth environment for 7 to 21 days after which time all species were compared to controls and visually evaluated. Plant response ratings, summarized in Table D, are based on a scale of 0 to 100 where 0 is no effect and 100 is complete control. A dash (-) response means no test result.

bluegrass [2] = assay: Test D preemergence; assay type: in vivo, Poa annua
Description: as §1, §2

bluegrass [3] = assay: Test D postemergence; assay type: in vivo, Poa annua
Description: as §1, §2

lambsquarters = assay: Test D postemergence; assay type: in vivo, Chenopodium album
Description: as §1, §2

chamomile = assay: Test D postemergence; assay type: in vivo, Matricaria inodora
Description: as §1, §2

winter barley = assay: Test D postemergence; assay type: in vivo, Hordeum vulgare
Description: as §1, §2

spring barley = assay: Test D postemergence; assay type: in vivo, Hordeum vulgare
Description: as §1, §2

bromegrass, downy [4] = assay: Test D postemergence; assay type: in vivo, Bromus tectorum
Description: as §1, §2

wild oat = assay: Test D postemergence; assay type: in vivo, Avena fatua
Description: as §1, §2

blackgrass = assay: Test D preemergence; assay type: in vivo, Alopecurus myosuroides
Description: as §1, §2

canarygrass = assay: Test D preemergence; assay type: in vivo, Phalaris minor
Description: as §1, §2

green foxtail = assay: Test D preemergence; assay type: in vivo, Setaria viridis
Description: as §1, §2

[5] = 16 g ai/ha, scale 0 (no effect) to 100 (complete control)
[6] = Postemergence, 62 g ai/ha, scale 0 to 100 (0 no effect, 100 complete control)
[7] = Postemergence, 31 g ai/ha, scale 0 to 100 (0 no effect, 100 complete control)
[8] = Postemergence, 125 g ai/ha, scale 0 to 100 (0 no effect, 100 complete control)
[9] = Postemergence, 250 g ai/ha, scale 0 to 100 (0 no effect, 100 complete control)
[10] = postemergence, 16 g ai/ha, scale 0 to 100, 0 no effect, 100 complete control
[11] = 31 g ai/ha, scale 0 to 100 (0 no effect, 100 complete control)
[12] = 62 g ai/ha, scale 0 to 100 (0 no effect, 100 complete control)
[13] = 125 g ai/ha, scale 0 to 100 (0 no effect, 100 complete control)
[14] = 250 g ai/ha, scale 0 to 100 (0 no effect, 100 complete control)

Compound: Clc1cnc(Oc2ccccc2-n2cc(Cl)cn2)nc1 [Compound 3]
- Plant response rating, Bromegrass, Downy (bromegrass, downy [1]; [5]): 0
- Plant response rating, Bromegrass, Downy (bromegrass, downy [1]; 31 g ai/ha, scale 0-100): 0
- Plant response rating, Bromegrass, Downy (bromegrass, downy [1]; 62 g ai/ha, scale 0-100): 0
- Plant response rating, Bromegrass, Downy (bromegrass, downy [1]; 125 g ai/ha, scale 0-100): 0
- Plant response rating, Bromegrass, Downy (bromegrass, downy [1]; 250 g ai/ha, scale 0-100): 0
- Plant response rating, Bluegrass (bluegrass [2]; [5]): 0
- Plant response rating, Bluegrass (bluegrass [2]; 31 g ai/ha, scale 0-100): 0
- Plant response rating, Bluegrass (bluegrass [2]; 62 g ai/ha, scale 0-100): 0
- Plant response rating, Bluegrass (bluegrass [2]; 125 g ai/ha, scale 0-100): 20
- Plant response rating, Bluegrass (bluegrass [2]; 250 g ai/ha, scale 0-100): 40
- Plant response rating, Bluegrass (bluegrass [3]; [6]): 0
- Plant response rating, Bluegrass (bluegrass [3]; [7]): 0
- Plant response rating, Bluegrass (bluegrass [3]; [8]): 0
- Plant response rating, Bluegrass (bluegrass [3]; [9]): 10
- Plant response rating, Bluegrass (bluegrass [3]; [10]): 40
- Plant response rating, Lambsquarters (lambsquarters; 16 g ai/ha, scale 0-100): 25
- Plant response rating, Lambsquarters (lambsquarters; [11]): 20
- Plant response rating, Lambsquarters (lambsquarters; [12]): 60
- Plant response rating, Lambsquarters (lambsquarters; [13]): 80
- Plant response rating, Lambsquarters (lambsquarters; [14]): 85
- Plant response rating, Chamomile (chamomile; 16 g ai/ha, scale 0-100): 0
- Plant response rating, Chamomile (chamomile; [11]): 0
- Plant response rating, Chamomile (chamomile; [12]): 0
- Plant response rating, Chamomile (chamomile; [13]): 0
- Plant response rating, Chamomile (chamomile; [14]): 0
- Plant response rating, Barley, Winter (winter barley; [6]): 0
- Plant response rating, Barley, Winter (winter barley; [7]): 0
- Plant response rating, Barley, Winter (winter barley; [8]): 0
- Plant response rating, Barley, Winter (winter barley; [9]): 0
- Plant response rating, Barley, Winter (winter barley; [10]): 50
- Plant response rating, Barley, Spring (spring barley; [6]): 0
- Plant response rating, Barley, Spring (spring barley; [7]): 0
- Plant response rating, Barley, Spring (spring barley; [8]): 0
- Plant response rating, Barley, Spring (spring barley; [9]): 10
- Plant response rating, Barley, Spring (spring barley; [10]): 50
- Plant response rating, Bromegrass, Downy (bromegrass, downy [4]; [6]): 0
- Plant response rating, Bromegrass, Downy (bromegrass, downy [4]; [7]): 0
- Plant response rating, Bromegrass, Downy (bromegrass, downy [4]; [8]): 0
- Plant response rating, Bromegrass, Downy (bromegrass, downy [4]; [9]): 0
- Plant response rating, Bromegrass, Downy (bromegrass, downy [4]; [10]): 50
- Plant response rating, Oat, Wild (wild oat; 16 g ai/ha, scale 0-100): 70
- Plant response rating, Oat, Wild (wild oat; [11]): 0
- Plant response rating, Oat, Wild (wild oat; [12]): 0
- Plant response rating, Oat, Wild (wild oat; [13]): 0
- Plant response rating, Oat, Wild (wild oat; [14]): 0
- Plant response rating, Blackgrass (blackgrass; [5]): 0
- Plant response rating, Blackgrass (blackgrass; 31 g ai/ha, scale 0-100): 0
- Plant response rating, Blackgrass (blackgrass; 62 g ai/ha, scale 0-100): 0
- Plant response rating, Blackgrass (blackgrass; 125 g ai/ha, scale 0-100): 0
- Plant response rating, Blackgrass (blackgrass; 250 g ai/ha, scale 0-100): 0
- Plant response rating, Canarygrass (canarygrass; [5]): 0
- Plant response rating, Canarygrass (canarygrass; 31 g ai/ha, scale 0-100): 0
- Plant response rating, Canarygrass (canarygrass; 62 g ai/ha, scale 0-100): 0
- Plant response rating, Canarygrass (canarygrass; 125 g ai/ha, scale 0-100): 0
- Plant response rating, Canarygrass (canarygrass; 250 g ai/ha, scale 0-100): 25
- Plant response rating, Foxtail, Green (green foxtail; [5]): 10
- Plant response rating, Foxtail, Green (green foxtail; 62 g ai/ha, scale 0-100): 10
- Plant response rating, Foxtail, Green (green foxtail; 125 g ai/ha, scale 0-100): 10
- Plant response rating, Foxtail, Green (green foxtail; 250 g ai/ha, scale 0-100): 30
